# Source: patent US5414001A, “Antineoplastic pyrrolo[4,3,2-de]quinolin-8(1H)-ones” (American Cyanamid Company, priority 1993, dated 1995)
# Where “and” joins values, the source holds several entries; their conditions need not be identical. Identical values can stand only once. Counter-ions that a name gives are not always drawn. Like-named read-outs stand apart in the source and are kept apart here.
# Legend:
# [1] = test system: panel of >20 human tumor cell lines; test: In vitro tumor panel evaluation, Sulforhodamine B (SRB) cytotoxicity assay; format: cell-based; settings: for IC50: Homo sapiens, 48 h
# MIP / SW620 = test: SRB cytotoxicity ratio MIP/SW620 (MDR, P-glycoprotein resistance); format: cell-based, human; settings: 2880 min
# HCT15 / SKBR3 = test: SRB cytotoxicity ratio HCT15/SKBR3 (topoisomerase resistance); format: cell-based, human; settings: 2880 min
# [2] = test system: Ovcar3 human ovarian carcinoma; parameters: species or system human tumor in Balb/C nu/nu athymic mice; settings: in vivo
# P388 murine leukemia = test system: P388 murine leukemia; parameters: species or system murine (mice); settings: mouse, in vivo
# BR513 = format: cell-based
# CaCo2 / CX1 [3] = test: SRB cytotoxicity ratio CaCo2/CX1 (growth kinetics); settings: IC50 resistant / IC50 sensitive cell line, 2880 min
# Method: (§4) The cytotoxic activity of the pyrrolo[4,3,2-de]quinolin-8(1H)-ones against a panel of >20 human tumor cell lines is determined using the Sulforhodamine B protein dye-binding colorimetric cytotoxicity assay (SRB) described by Skehan et al. (Journal National Cancer Institute 82:1107-1112, 1990), as modified by Monks et al., (Journal National Cancer Institute 83: 757-766, 1991). […] Positive controls (i.e., etoposide) are included in every experiment. Treatments are for 48 hours, after which cells are fixed in 10% trichloroacetic acid (10% final concentration), washed five times with deionized water and stained with SRB solution (0.4% in glacial acetic acid). Protein-bound stain is solubilized with 0.1 ml tris buffer and the adsorbance values are recorded with a microplate reader. Duplicate plates of cells are fixed with trichloroacetic acid at the time of drug addition to establish To values, as described by Monks et al. (JNCl, 83: 757-766, 1991). The effect of drug treatments over the five-long range of concentrations is calculated using the formula, T--To/C--To, to determine the IC50 values.
# (§5) 3) The ratio values for DDP/S; CaCo2/CX1; MIP/SW620, and; HCT15/SKBR3 refer to the IC50 value for resistant cell lines included in the tumor cell panel, divided by the IC50 value for corresponding drug sensitive cell lines. For example, DDP is a Cisplatin resistant ovarian carcinoma cell line, and S is the corresponding parent drug sensitive ovarian carcinoma cell line (A2780). […] CaCo2 is a slow growing non P-glycoprotein multidrug resistant colon carcinoma cell line. MIP is a colon carcinoma cell line that expresses P-glycoprotein and is multidrug resistant; SW620 is a drug sensitive colon carcinoma cell line. HCT15 is a colon carcinoma cell line that is resistant to topoisomerase inhibitors and SKBR3 is a breast carcinoma that is very sensitive to topoisomerase inhibitors.
# [4] = test system: DDP (Cisplatin resistant ovarian carcinoma cell line) / S (A2780); test: SRB cytotoxicity ratio DDP/S (cisplatin resistance); format: cell-based, human; settings: IC50 resistant / IC50 sensitive cell line; cisplatin resistance; 2880 min
# S. aureus 375 = test: Antibacterial agar diffusion assay; format: cell-based; settings: H = hazy zones
# S. aureus meth r 310 = test: Antibacterial agar diffusion assay; format: cell-based; settings: H = hazy zones
# E. faecium 379 = test: Antibacterial agar diffusion assay; format: cell-based; settings: H = hazy zones
# Method: (§1) One hundred fifty milliliters of agar medium are seeded with 1 ml of diluted culture and aseptically poured into 9 inch×9 inch Nunc bioassay plates. The twenty-five microliters of the test sample dissolved in DMSO are placed in 5.5 mmwells that are cut into agar layer which has been pre-seeded with the test bacterial strains. The plates are incubated at 37° C. for 18-24 hours. Zones of inhibition are recorded.
# (§2) ALL SAMPLES IN 20% DMSO
# (§3) AGAR DIFFUSION ASSAY 25 microliter sample in 5.5 mm well
# S. aureus cipro r 400 = test: Antibacterial agar diffusion assay; format: cell-based; settings: 64 microgram/ml; H = hazy zones
# Method: as §1, §2, §3
# E. coli 300 = test: Antibacterial agar diffusion assay; format: cell-based; parameters: concentration or dose not given beside the values
# CaCo2 / CX1 [5] = settings: human, Caco-2, 48 h
# Method: as §4, §5
# B. subtilis 17 = test: Antibacterial agar diffusion assay; format: cell-based; settings: H = hazy zones
# K. pneumoniae 53 = test: Antibacterial agar diffusion assay; format: cell-based; settings: H = hazy zones
# C. freundii 395 = test: Antibacterial agar diffusion assay; format: cell-based; settings: 1000 microgram/ml; H = hazy zones
molecule,measurement,setting,value
"C[N+]1=C2C=C(N)C(=O)c3[nH]cc(c32)CC1 [Example 3, 7-amino-1,3,4,8-tetrahydro-5-methyl-8-oxo-pyrrolo[4,3,2-de]quinolinium trifluoroacetate]",IC50,[1]; read-out: AVG IC50,1.7 µg/mL
same,IC50,[1]; read-out: MAX IC50,10 µg/mL
same,IC50,[1]; read-out: MIN IC50,0.06 µg/mL
same,MIP/SW620 IC50 ratio,"MIP / SW620; IC50 resistant / IC50 sensitive cell line, MDR (pglycoprotein) resistance",1.1
same,HCT15/SKBR3 IC50 ratio,"HCT15 / SKBR3; IC50 resistant / IC50 sensitive cell line, topoisomerase resistance",1.9
same,Ovcar3 Min T/C %,[2],37%
same,P388 ILS %,P388 murine leukemia,18%
same,BIA BR513,"BR513; 1000 microgram/ml, T = toxic",8T
same,CaCO2/CX1 IC50 ratio,CaCo2 / CX1 [3],0.3
"O=C1C(NC2Cc3cc(Br)c(O)cc3S2)=CC2=NCCc3c[nH]c1c32 (stereo not shown) [Example 6, trifluoroacetate]","more potent than the reference topoisomerase inhibitor, etoposide",[1],1 log
same,DDP/S IC50 ratio,[4],1.8
same,MIP/SW620 IC50 ratio,"MIP / SW620; human, mip/sw620 cells",5.1
same,HCT15/SKBR3 IC50 ratio,"HCT15 / SKBR3; human, hct15/skbr3 cells",3.5
same,ZONES OF INHIBITION,S. aureus 375; 250 microgram/ml,7H
same,ZONES OF INHIBITION,S. aureus meth r 310; 64 microgram/ml,8 MM
same,ZONES OF INHIBITION,S. aureus meth r 310; 250 microgram/ml,9 MM
same,ZONES OF INHIBITION,S. aureus meth r 310; 1000 microgram/ml,10 MM
same,ZONES OF INHIBITION,E. faecium 379; 64 microgram/ml,9H
same,ZONES OF INHIBITION,E. faecium 379; 250 microgram/ml,11H
same,ZONES OF INHIBITION,E. faecium 379; 1000 microgram/ml,12H
same,ZONES OF INHIBITION,S. aureus cipro r 400,11H
same,ZONES OF INHIBITION,E. coli 300; trifluoroacetate,12 and 11 and 9
same,BIA BR513,BR513,8T
same,CaCO2/CX1 IC50 ratio,CaCo2 / CX1 [5],6.3
"CC[C@]1(O)C[C@H]2CN(CCc3c([nH]c4ccccc34)[C@@](C(=O)OC)(c3cc4c(cc3OC)N(C=O)[C@H]3[C@@](O)(C(=O)OC)[C@H](OC(C)=O)[C@]5(CC)C=CCN6CC[C@]43[C@@H]65)C2)C1 [Vincristine, reference compound]",Ovcar3 Min T/C %,[2],53%
same,P388 ILS %,P388 murine leukemia,> 91%
CINODINE,ZONES OF INHIBITION,B. subtilis 17; 64 microgram/ml,8 MM
same,ZONES OF INHIBITION,B. subtilis 17; 250 microgram/ml,11 MM
same,ZONES OF INHIBITION,B. subtilis 17; 1000 microgram/ml,13 MM
same,ZONES OF INHIBITION,S. aureus 375; 250 microgram/ml,7 MM
same,ZONES OF INHIBITION,S. aureus 375; 1000 microgram/ml,9 MM
same,ZONES OF INHIBITION,S. aureus meth r 310; 1000 microgram/ml,7 MM
same,ZONES OF INHIBITION,"E. coli 300; 1000 microgram/ml, H = hazy zones",9 MM
same,ZONES OF INHIBITION,K. pneumoniae 53; 16 microgram/ml,8 MM
same,ZONES OF INHIBITION,K. pneumoniae 53; 64 microgram/ml,10 MM
same,ZONES OF INHIBITION,K. pneumoniae 53; 250 microgram/ml,12 MM
same,ZONES OF INHIBITION,C. freundii 395,8H
